In article PMC5149029, “New Aspects of Silibinin Stereoisomers and their 3-O-galloyl Derivatives on Cytotoxicity and Ceramide Metabolism in Hep G2 hepatocarcinoma Cell Line” (Iranian Journal of Pharmaceutical Research : IJPR, 2016):
Marks after values point to notes of the source that are not given here.

Tests used:
[1] = target: T1, glucosyl ceramide synthase (GCS) (Homo sapiens, UniProt Q16739); assay: GCS activity assay (C6-NBD-ceramide, HPLC); assay type: cell-based; conditions: for GCS activity, effect of treatment: Hep G2, 0-200 µM
T1 construct: endogenous in cells; host or cells: Hep G2
T1 sequence (Q16739 1-394): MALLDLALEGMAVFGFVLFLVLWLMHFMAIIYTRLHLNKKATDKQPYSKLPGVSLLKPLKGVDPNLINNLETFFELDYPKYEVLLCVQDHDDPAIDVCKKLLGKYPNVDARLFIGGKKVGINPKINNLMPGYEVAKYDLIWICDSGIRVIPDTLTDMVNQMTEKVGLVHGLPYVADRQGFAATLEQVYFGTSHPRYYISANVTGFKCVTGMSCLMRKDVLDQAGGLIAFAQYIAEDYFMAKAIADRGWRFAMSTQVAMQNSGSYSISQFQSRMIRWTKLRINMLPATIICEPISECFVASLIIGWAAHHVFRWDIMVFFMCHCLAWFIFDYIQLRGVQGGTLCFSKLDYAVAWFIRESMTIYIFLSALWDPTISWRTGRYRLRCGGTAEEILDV
Description: (§1) The cell line was grown in RPMI-1640 medium supplemented with L-glutamine 2 mM, HEPESNa 25 mM, penicillin 100 U/mL, streptomycin 100 μg/mL and 10% […] (FBS) at 37 °C in a humidified atmosphere containing 5% CO2. Hep G2 cells were seeded at 1 × 10^6 cells/mL and sub cultured every 2–3 days after 60–80% confluence was reached. To prepare the lysates cells attached to the culture plate were scraped off with a cell scraper and collected in a 1.5 mL tube by centrifugation. The cell pellets were rinsed with PBS, suspended in sterile water, and then lysed by sonication. For each experiment, the cells were treated separately with increasing concentrations of silibinin derivatives (0, 25, 50, 75, 100, 125, 150, 175 and 200 μM) and incubated for 48 h.
To determine GCS activities, the fluorescent acceptor substrate C6-4-nitrobenzo-2-oxa-1,3-diazole (NBD)-ceramide and a normal-phase HPLC were used. Acceptor substrate, 50 pM of C6-NBD-Cer and 6.5 nM of lecithin were mixed in 100 µL of ethanol and then the solvent was evaporated. Next, 10 µL of water was added and the mixture was sonicated to form liposomes. For the GCS assay, 50 µL of reaction mixture contains 500 µM UDP-Glc, 1mM EDTA, 10 µL of C6-NBD-Cer liposome and 20 µL of an appropriate amount of enzyme in lysis buffer. Addition of conduritol B epoxide (CBE) at 2.5 mM is effective at inhibiting the glycosidase activity. Standard assays were carried out at 37 °C for 1 h. The reaction was stopped by adding 200 µL of chloroform/methanol (2:1, v/v). After a few seconds of vortexing, 5 µL of 500 µM KCl was added and then centrifuged. After the organic phase had dried up, lipids were dissolved in 200 µL of isopropyl alcohol/n-hexane/H2O (55:44:1) and then transferred to a glass vial in auto sampler. A 100 µL aliquot of sample was automatically loaded onto a normal-phase column (Intersil SIL 150A-5, 4.6 x 250 mm, GL Sciences, Japan) and eluted with isopropyl alcohol/n-hexane/H2O (55:44:1) at a flow rate of 2.0 mL/min. Fluorescence was determined using a fluorescent detector (Hitachi L-7480) set to excitation and emission wavelengths of 470 and 530 nm, respectively. The fluorescent peaks were identified by comparing their retention times with those of standards ([37]).

[2] = system: Neutral sphingomyelinase (NSMase); assay: NSMase activity assay (Amplex Red kit); assay type: cell-based, human; conditions: for NSMase activity in comparison with control: Hep G2, 125 µM and higher concentrations
Description: as §1
Amplex™ Red NSMase Assay Kit (AAT Bioquest®, Inc. product no: 13620) was used to determine NSMases activity. The kit uses Amplite™ Red as a colorimetric probe to indirectly quantify the phosphocholine produced from the hydrolysis of sphingomyelin by NSMase.
Cells were washed with ice cold PBS and homogenized in neutral lysis buffer (20 mM Tris–HCl pH 7.4, 2 mM EDTA, 5 mM EGTA, 1 mM PMSF, 1% protein cocktail inhibitor and 1 mM sodium orthovanadate) for NSMase assays. Samples were kept on ice 15 min and centrifuged at 14,000 × g for 20 min at 4 °C. 100 µL of each supernatant fraction were incubated at 37 °C for 1hour with working solution. The fluorescence count of produced resorophine in the previous step was measured with a fluorescence micro plate reader by using excitation at 540 nm and emission at 590 nm ([36]).

Hep G2 cells = assay: Cell viability, MTT colorimetric assay; assay type: cell-based; conditions: Hep G2, 48 h
Description: The cell line was grown in RPMI-1640 medium supplemented with L-glutamine 2 mM, HEPESNa 25 mM, penicillin 100 U/mL, streptomycin 100 μg/mL and 10% phosphate-buffered saline (FBS) at 37 °C in a humidified atmosphere containing 5% CO2. Hep G2 cells were seeded at 1 × 10^6 cells/mL and sub cultured every 2–3 days after 60–80% confluence was reached. […] For each experiment, the cells were treated separately with increasing concentrations of silibinin derivatives (0, 25, 50, 75, 100, 125, 150, 175 and 200 μM) and incubated for 48 h.
To measure cell viability, the 3-(4,5-dimethylthiazol-2-yl)-2,5-diphenyl tetrazolium bromide (MTT) colorimetric assay was performed as published ([32], [33]). Briefly, Hep G2 cells were seeded onto 96 flat bottom well plates (50 × 10^3 cells/well) and grown overnight. After the incubation period with silibinin isomers, cells were washed twice with phosphate-buffered saline solution and incubated with MTT solution at a final concentration of 0.5 mg/mL for 3 h and then lysed in dimethyl sulfoxide. Optical density was measured at 540 nm and the background absorbance measured at 660 nm was subtracted. Each experiment was replicated separately for three times.

caspase-9 = assay: Caspase-9 activity, colorimetric substrate Ac-LEHD-pNA; assay type: cell-based, human; conditions: Hep G2, 48 h, control 0.26
Description: as §1
(§2) The activities of caspase-3 and 9 were measured using colorimetric substrates. Cells were added to a lysis buffer (100 mM HEPES [pH 7.5], 0.1% CHAPS, 1 mM PMSF, 10 mM MDTT, 1 mM EDTA) and placed on ice for 30 min. After the cells were centrifuged at 10,000 × g for 10 min at 4 °C, 50 μg of protein from the supernatants was added to each of the caspase substrates. The colorimetric substrates for caspase-3 and 9 were Ac-DEVD-pNA (Asp-Glu-Val-Asp-pNA) and Ac-LEHD-pNA (N-acetyl-Leu-Glu-His-Asp-pNA), respectively. After a 2 h incubation, to measure p-nitroanilide absorbance was determined at 405 nm ([34]).

caspase-3 = assay: Caspase-3 activity, colorimetric substrate Ac-DEVD-pNA; assay type: cell-based, human; conditions: Hep G2, 48 h, control 0.38
Description: as §1, §2

COc1cc([C@@H]2Oc3cc([C@H]4Oc5cc(O)cc(O)c5C(=O)[C@@H]4OC(=O)c4cc(O)c(O)c(O)c4)ccc3O[C@H]2CO)ccc1O [SGB, 3-O-galloyl silybin B]
GCS activity, effect of treatment [1]: dose dependent inhibition | GCS activity (% of control) ([1]; Hep G2, 200 µM): 18 % of control | NSMase activity with respect to control ([2]; Hep G2, all concentrations (0-200 µM)): did not exert any significant change | Cell viability (% of control) (Hep G2 cells; 25 micro molar): 91 + 10.0 % of control | Cell viability (% of control) (Hep G2 cells; 50 micro molar): 78 + 9.5^* % of control | Cell viability (% of control) (Hep G2 cells; 75 micro molar): 65 + 8.6^* % of control | Cell viability (% of control) (Hep G2 cells; 100 micro molar): 56 + 7.7^* % of control | Cell viability (% of control) (Hep G2 cells; 125 micro molar): 49 + 6.9^* % of control | Cell viability (% of control) (Hep G2 cells; 150 micro molar): 35 + 5.1^* % of control | Cell viability (% of control) (Hep G2 cells; 175 micro molar): 29 + 4.3^* % of control | Caspase-9 (ΔOD 405nm) (caspase-9; 25 micro molar): 0.30 ± 0.048 ΔOD 405nm | Caspase-9 (ΔOD 405nm) (caspase-9; 50 micro molar): 0.41 ± 0.053 ΔOD 405nm | Caspase-9 (ΔOD 405nm) (caspase-9; 75 micro molar): 0.46 ± 0.046 ΔOD 405nm | Caspase-9 (ΔOD 405nm) (caspase-9; 100 micro molar): 0.53 ± 0.077 ΔOD 405nm | Caspase-9 (ΔOD 405nm) (caspase-9; 125 micro molar): 0.70 ± 0.093 ΔOD 405nm | Caspase-9 (ΔOD 405nm) (caspase-9; 150 micro molar): 0.89 ± 0.108 ΔOD 405nm | Caspase-9 (ΔOD 405nm) (caspase-9; 175 micro molar): 1.18 ± 0.192 ΔOD 405nm | Caspase-9 (ΔOD 405nm) (caspase-9; 200 micro molar): 1.34 ± 0.207 ΔOD 405nm | Caspase-3 (ΔOD 405nm) (caspase-3; 25 micro molar): 0.45 ± 0.065 ΔOD 405nm | Caspase-3 (ΔOD 405nm) (caspase-3; 50 micro molar): 0.56 ± 0.070 ΔOD 405nm | Caspase-3 (ΔOD 405nm) (caspase-3; 75 micro molar): 0.62 ± 0.081 ΔOD 405nm | Caspase-3 (ΔOD 405nm) (caspase-3; 100 micro molar): 0.78 ± 0.095 ΔOD 405nm | Caspase-3 (ΔOD 405nm) (caspase-3; 125 micro molar): 0.98 ± 0.128 ΔOD 405nm | Caspase-3 (ΔOD 405nm) (caspase-3; 150 micro molar): 1.21 ± 0.160 ΔOD 405nm | Caspase-3 (ΔOD 405nm) (caspase-3; 175 micro molar): 1.53 ± 0.209 ΔOD 405nm | Caspase-3 (ΔOD 405nm) (caspase-3; 200 micro molar): 1.63 ± 0.221 ΔOD 405nm

COc1cc([C@@H]2Oc3cc([C@H]4Oc5cc(O)cc(O)c5C(=O)[C@@H]4O)ccc3O[C@H]2CO)ccc1O [SB, silybin B]
GCS activity, effect of treatment [1]: dose dependent inhibition | NSMase activity in comparison with control [2]: considerable increase | Cell viability (% of control) (Hep G2 cells; 25 micro molar): 94 + 10.3 % of control | Cell viability (% of control) (Hep G2 cells; 50 micro molar): 89 + 10.5 % of control | Cell viability (% of control) (Hep G2 cells; 75 micro molar): 81 + 10.7^* % of control | Cell viability (% of control) (Hep G2 cells; 100 micro molar): 70 + 10.0^* % of control | Cell viability (% of control) (Hep G2 cells; 125 micro molar): 60 + 7.9^* % of control | Cell viability (% of control) (Hep G2 cells; 150 micro molar): 51 + 7.6^* % of control | Cell viability (% of control) (Hep G2 cells; 175 micro molar): 45 + 5.1^* % of control | Cell viability (% of control) (Hep G2 cells; 200 micro molar): 40 + 6.0^* % of control | Caspase-9 (ΔOD 405nm) (caspase-9; 25 micro molar): 0.30 ± 0.048 ΔOD 405nm | Caspase-9 (ΔOD 405nm) (caspase-9; 50 micro molar): 0.41 ± 0.055 ΔOD 405nm | Caspase-9 (ΔOD 405nm) (caspase-9; 75 micro molar): 0.47 ± 0.070 ΔOD 405nm | Caspase-9 (ΔOD 405nm) (caspase-9; 100 micro molar): 0.56 ± 0.067 ΔOD 405nm | Caspase-9 (ΔOD 405nm) (caspase-9; 125 micro molar): 0.60 ± 0.083 ΔOD 405nm | Caspase-9 (ΔOD 405nm) (caspase-9; 150 micro molar): 0.67 ± 0.105 ΔOD 405nm | Caspase-9 (ΔOD 405nm) (caspase-9; 175 micro molar): 0.81 ± 0.126 ΔOD 405nm | Caspase-9 (ΔOD 405nm) (caspase-9; 200 micro molar): 0.89 ± 0.114 ΔOD 405nm | Caspase-3 (ΔOD 405nm) (caspase-3; 25 micro molar): 0.34 ± 0.050 ΔOD 405nm | Caspase-3 (ΔOD 405nm) (caspase-3; 50 micro molar): 0.45 ± 0.060 ΔOD 405nm | Caspase-3 (ΔOD 405nm) (caspase-3; 75 micro molar): 0.58 ± 0.076 ΔOD 405nm | Caspase-3 (ΔOD 405nm) (caspase-3; 100 micro molar): 0.53 ± 0.065 ΔOD 405nm | Caspase-3 (ΔOD 405nm) (caspase-3; 125 micro molar): 0.62 ± 0.095 ΔOD 405nm | Caspase-3 (ΔOD 405nm) (caspase-3; 150 micro molar): 0.73 ± 0.105 ΔOD 405nm | Caspase-3 (ΔOD 405nm) (caspase-3; 175 micro molar): 0.82 ± 0.130 ΔOD 405nm | Caspase-3 (ΔOD 405nm) (caspase-3; 200 micro molar): 0.79 ± 0.096 ΔOD 405nm

COc1cc([C@H]2Oc3cc([C@H]4Oc5cc(O)cc(O)c5C(=O)[C@@H]4OC(=O)c4cc(O)c(O)c(O)c4)ccc3O[C@@H]2CO)ccc1O [SGA, 3-O-galloyl silybin A]
GCS activity, effect of treatment [1]: did not indicate any significant changes | NSMase activity in comparison with control [2]: considerable increase | Cell viability (% of control) (Hep G2 cells; 25 micro molar): 96 + 10.5 % of control | Cell viability (% of control) (Hep G2 cells; 50 micro molar): 84 + 9.3^* % of control | Cell viability (% of control) (Hep G2 cells; 75 micro molar): 73 + 10.7^* % of control | Cell viability (% of control) (Hep G2 cells; 100 micro molar): 63 + 8.9^* % of control | Cell viability (% of control) (Hep G2 cells; 125 micro molar): 52 + 8.1^* % of control | Cell viability (% of control) (Hep G2 cells; 150 micro molar): 44 + 6.0^* % of control | Cell viability (% of control) (Hep G2 cells; 175 micro molar): 38 + 5.7^* % of control | Cell viability (% of control) (Hep G2 cells; 200 micro molar): 33 + 5.1^* % of control | Caspase-9 (ΔOD 405nm) (caspase-9; 25 micro molar): 0.23 ± 0.029 ΔOD 405nm | Caspase-9 (ΔOD 405nm) (caspase-9; 50 micro molar): 0.40 ± 0.053 ΔOD 405nm | Caspase-9 (ΔOD 405nm) (caspase-9; 75 micro molar): 0.55 ± 0.070 ΔOD 405nm | Caspase-9 (ΔOD 405nm) (caspase-9; 100 micro molar): 0.86 ± 0.136 ΔOD 405nm | Caspase-9 (ΔOD 405nm) (caspase-9; 125 micro molar): 0.69 ± 0.103 ΔOD 405nm | Caspase-9 (ΔOD 405nm) (caspase-9; 150 micro molar): 0.80 ± 0.124 ΔOD 405nm | Caspase-9 (ΔOD 405nm) (caspase-9; 175 micro molar): 1.19 ± 0.147 ΔOD 405nm | Caspase-9 (ΔOD 405nm) (caspase-9; 200 micro molar): 1.30 ± 0.167 ΔOD 405nm | Caspase-3 (ΔOD 405nm) (caspase-3; 25 micro molar): 0.35 ± 0.038 ΔOD 405nm | Caspase-3 (ΔOD 405nm) (caspase-3; 50 micro molar): 0.46 ± 0.062 ΔOD 405nm | Caspase-3 (ΔOD 405nm) (caspase-3; 75 micro molar): 0.58 ± 0.070 ΔOD 405nm | Caspase-3 (ΔOD 405nm) (caspase-3; 100 micro molar): 0.67 ± 0.084 ΔOD 405nm | Caspase-3 (ΔOD 405nm) (caspase-3; 125 micro molar): 0.83 ± 0.114 ΔOD 405nm | Caspase-3 (ΔOD 405nm) (caspase-3; 150 micro molar): 0.97 ± 0.134 ΔOD 405nm | Caspase-3 (ΔOD 405nm) (caspase-3; 175 micro molar): 1.12 ± 0.147 ΔOD 405nm | Caspase-3 (ΔOD 405nm) (caspase-3; 200 micro molar): 1.26 ± 0.164 ΔOD 405nm
